In patent publication US11718628B2, “SREBP inhibitors comprising a 6-membered central ring” (Capulus Therapeutics, LLC, priority 2018, dated 2023):

Columns and labels:
[1] = Log D by octanol/aqueous buffer partitioning; type: physicochemical; conditions: pH 7.4, 1-octanol/buffer
Description: The Log D of selected compounds was evaluated by octanol/aqueous buffer partitioning. 500 μL of organic phase (1-octanol) was added to each well of a 2 mL deep well plate, followed by 500 μL of buffer and 15 μL of test compound in DMSO (0.15 mM). The plate was vortexed for 10 seconds and incubated at room temperature for 1 hr on a plate shaker at 200 rpm. After incubation, the samples were allowed to equilibrate for 20 min and then centrifuged at 4000 rpm for 30 min for complete phase separation. The distribution of test compound in buffer and octanol phase was analyzed by HPLC-UV. Log D=Log (Area of Octanol/Area of Buffer).

[2] = In vivo pharmacokinetic properties in rats (IV and PO); parameters: species or system male Sprague Dawley rats
How it was run: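 Male Sprague Dawley rats received 2.00 mg/kg IV via the tail vein, with plasma sampled from a cannulated jugular vein from 0.083 to 24 h. Oral dosing was 10 mg/kg in rats or C57BL/6J mice, sampled at 0.25-24 h by jugular cannula (rats) or retro-orbital plexus (mice).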

[3] = Plasma and liver compound levels in mice after oral administration; type: in vivo
How it was run: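 Mice were dosed orally by gavage with compound in 0.5% methylcellulose (5% N-methyl pyrrolidone added when needed). Retro-orbital plasma and unperfused liver collected at 6 h or 24 h and stored at −80 °C for bioanalysis.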

CC(C)(C)c1cc(-c2cncc(-c3ccc(C(=O)N4CCC(O)CC4)cc3Cl)c2)ccn1 [Compound Z-725]
LogD [1]: 3.56
Intravenous Delivery (IV) CL ([2]; IV, 2 mg/kg): 1.81 L/h/kg
Intravenous Delivery (IV) T1/2 ([2]; IV, 2 mg/kg): 1.53 h
Intravenous Delivery (IV) Vd ([2]; IV, 2 mg/kg): 4.02 L/kg
% F (Bioavailability of oral delivery) ([2]; PO 10 mg/kg vs IV 2 mg/kg): 24%
Oral Administration (PO) AUC0-last ([2]; PO, 10 mg/kg): 1307
Oral Administration (PO) T1/2 ([2]; PO, 10 mg/kg): 5.1 h
Oral Administration (PO) Tmax ([2]; PO, 10 mg/kg): 1.67 h
Liver ng/mg (6 h) ([3]; 10 mpk): 100 to 1000 ng/mg
Plasma ng/mL (6 h) ([3]; 10 mpk): <100 ng/mL
Liver ng/mg 24 h ([3]; 10 mpk): 100 to 1000 ng/mg
Plasma ng/mL (24 h) ([3]; 10 mpk): <100 ng/mL
Liver ng/mg (6 h) ([3]; 30 mpk): 100 to 1000 ng/mg
Plasma ng/mL (6 h) ([3]; 30 mpk): 100 to 1000 ng/mL
Liver ng/mg 24 h ([3]; 30 mpk): <100 ng/mg
Plasma ng/mL (24 h) ([3]; 30 mpk): <100 ng/mL
